Assay results: US20250163176A1, “MONOCLONAL ANTIBODY AGAINST TROP2 AND USE THEREOF” (INSTITUTE OF MEDICAL BIOTECHNOLOGY, CHINESE ACADEMY OF …, priority 2022, published 2025)

T1: Trop2 antigen (human, UniProt P09758 27-274, limits assumed)
T1 construct: also called human trophoblast cell surface antigen 2; tumor-associated calcium signal transducer 2
T1 sequence (looked up): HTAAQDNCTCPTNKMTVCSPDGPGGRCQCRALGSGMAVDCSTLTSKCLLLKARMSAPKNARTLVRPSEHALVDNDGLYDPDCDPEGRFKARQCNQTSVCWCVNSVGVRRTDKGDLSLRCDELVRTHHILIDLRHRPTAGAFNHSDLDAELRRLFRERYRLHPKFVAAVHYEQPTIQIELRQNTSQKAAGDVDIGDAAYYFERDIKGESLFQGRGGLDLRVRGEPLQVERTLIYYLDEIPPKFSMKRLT

B1: anti-Trop2 monoclonal antibody IMB1636 (antibody, V domains shown)
VH: QVQLQQSGAELVRPGTSVKISCKASGYTFTNYWLGWVKQRPGHGLEWIGNIFPGGGYTNYNEKFKGKAILTADTSSSTAYMQLSSLTSEDSGVYFCAREGVMDYWGQGTTLTVSS
VL: DILLTQSPAILSVSPGERVSFSCRASQNIGTSIHWYQQRTNGFPRLLIKYASESISGIPSRFSGSGSGTDFTLSINSVESEDIADYYCQQSYSWPFTFGSGTKLEIK
notes: also called mouse-derived anti-Trop2 monoclonal antibody; anti-Trop2 antibody

Assays:
small cell lung cancer = details: patients, phase II; cited from earlier work
[1] = system: recurrent and refractory triple-negative breast cancer; details: patients; cited from earlier work
Trop2 antigen [2] = molecular target: T1, Trop2 antigen; experiment: indirect ELISA, Trop2 antigen coated at 0.1 µg/ml
Protocol: (§1) A Trop2 antigen was diluted to three dilutions (0.1 μg/mL, 0.2 μg/mL, and 0.4 μg/mL) and coated onto ELISA plates. […] An antigen-antibody reaction curve was determined using an indirect ELISA. […] The unit of Ka is M⁻¹. In this formula, [Ab] represents the antibody concentration corresponding to A=½Amax when the antigen concentration is [Ag]; [Ab]t represents the antibody concentration corresponding to A=½Amax when the antigen concentration is [Ag]t; [Ag] and [Ag]t represent the antigen concentrations; and n is the dilution factor between [Ag] and [Ag]t. (FIG. 7)

Trop2 antigen [3] = molecular target: T1, Trop2 antigen; experiment: indirect ELISA, Trop2 antigen coated at 0.4 µg/ml
Protocol: as §1

Trop2 antigen [4] = molecular target: T1, Trop2 antigen; experiment: indirect ELISA, Trop2 antigen coated at 0.2 µg/ml
Protocol: as §1

Trop2 antigen [5] = molecular target: T1, Trop2 antigen; experiment: Biacore SPR; antibody amine-coupled to CM5 chip, Trop2 antigen as analyte
Protocol: Amino of an anti-Trop2 antibody was coupled to a CM5 chip, with pH of 5.0, an antibody concentration of 10 μg/mL, sample injection time of 60 s, and flow rate of 10 μL/min, and a coupling amount of 378.6 RU. […] (FIG. 6)

Trop2 antigen [6] = molecular target: T1, Trop2 antigen; experiment: indirect ELISA on plates coated with Trop2 antigen at 0.1, 0.2 and 0.4 µg/mL; Ka calculated from the antibody concentrations at half-maximal binding
Protocol: as §1

Molecule | clinical effective rate (small cell lung cancer) [%] | median overall survival time (small cell lung cancer) [months] | median progression-free survival time (small cell lung cancer) [months] | median remission time (small cell lung cancer) [months] | objective remission rate (small cell lung cancer) [%] | average time from administration to taking effect [1] [months] | clinical effective rate [1] [%] | objective remission rate [1] [%] | overall survival time [1] [months] | progression-free survival time [1] [months] | EC50 (read off the curve) (Trop2 antigen [2]) [ng/mL] | EC50 (read off the curve) (Trop2 antigen [3]) [ng/mL] | EC50 (read off the curve) (Trop2 antigen [4]) [ng/mL] | Kd (Trop2 antigen [5]) [nM] | koff (Trop2 antigen [5]) [s⁻¹] | kon (Trop2 antigen [5]) [M⁻¹ s⁻¹] | Ka (Trop2 antigen [6]) [M⁻¹]
IMMU-132 | 43 | 9.5 | 5.2 | 6 | 19 | 1.9 | 46 | 30 | 16.6 | 6 |  |  |  |  |  |  | 
B1 |  |  |  |  |  |  |  |  |  |  | ~5 | ~5 | ~5 | 0.484 | 0.00073 | 1.51e+06 | 3.9e+10
